From patent US7776863B2, “Methods of treating HIV infection” (priority 2004, dated 2010)

Test system: HIV-1 LAI
Assay: microbe, parasite or virus in culture
Settings: for Combination Indices at % HIV Inhibition (Confidence Interval) 50% / Combination Indices at % HIV Inhibition (Confidence Interval) 75% / Combination Indices at % HIV Inhibition (Confidence Interval) 90% / Overall Result (combined anti-HIV effect): Compound 1 + named drug; for Combination Indices at % HIV Inhibition (Confidence Interval) 50% / Combination Indices at % HIV Inhibition (Confidence Interval) 75% / Combination Indices at % HIV Inhibition (Confidence Interval) 90%: 95% confidence interval in parentheses; for Overall Result (combined anti-HIV effect): all ratios, MT-2 cells, HIV-1 LAI; for EC50: Human immunodeficiency virus 1, MT2, 120 h
Protocol: Virus and cell lines. The T-cell lines, MT-2 and PM-1 were obtained through the AIDS Research and Reference Reagent Program, NIAID, and were contributed by Dr. D. Richman and Dr. R. Gallo, respectively. Both cell lines were cultured in RPMI 1640 medium supplemented with 10% fetal bovine serum, 2 mM L-glutamine and sub-cultured twice a week. The LAI strain of HIV-1 was obtained from the Fred Hutchinson Cancer Research Center, and the Bal strain was from NIH. Both virus stocks were amplified and titered in MT-2 cells (LAI) and PM-1 cells (Bal) using a virus infectivity assay.
Drug Susceptibility and Cytotoxicity Assays. For drug susceptibility assays, MT-2 cells were infected with HIV-1 LAI (or PM-1 cells with HIV-1 Bal) at an MOI of 0.005, and seeded into 96-well microtiter plates (0.1×10^6 cells/ml) containing serial dilutions of test compounds. […] Each drug ratio consisted of an array of 3-fold serial dilutions, and was performed in quadruplicate. The plates were incubated at 37° C./5% CO2. The MT-2 cells infected with HIV-1 LAI were incubated for 5 days. On day-five post-infection, 20 μl from each well was harvested and quantitated by a reverse transcriptase (RT) assay, or in samples involving non-nucleoside RT inhibitors, an MTS assay. The PM-1 cells infected with HIV-1 Bal and used for studying the combinations with CCR5 inhibitors were incubated for six days. On day-six post-infection, 20 μl from each well was harvested, 20- and 50-fold diluted and quantitated by p24 assay. Cytotoxicity assays were performed using uninfected cells, exposed to the same drug combinations, and incubated for six days. Cell viability was determined by an MTS assay. The CC50 values were calculated by using the exponential form of the median effect equation as mentioned below for calculation of EC50.
Analysis of Drug Combination Effects. For determination of CI values, drugs were diluted in a fixed ratio and multiple ratios were analyzed. The drug serial dilutions spanned a range of concentrations near the EC50 value of each compound, so that equivalent antiviral activities could be compared. Concentration-response curves were estimated for each individual drug and every combination using the median-effect equation. The equation was fit using a nonlinear regression routine (Proc Nlin) in PC SAS version 8.01 (SAS Institute Inc., SAS Version 8.01, Cary, N.C.: SAS Institute Inc., 1990).
In this equation, Fa stands for “fraction affected,” and represents the fraction of the viral load that has been inactivated. […] ED50 is drug concentration that is expected to reduce the amount of virus by 50%, and m is a parameter that reflects the slope of the concentration-response curve.
To assess antiviral effects of different drug combination treatments, combination indices (CIs) were calculated according to Chou and Rideout. The combination index was computed as CI=[D]1/[Dm]1+[D]2/[Dm]2
In this equation [Dm]1 and [Dm]2 are the concentrations of drugs that would individually produce a specific level of effect, while [D]1 and [D]2 are the concentrations of drugs in combination that would produce the same level of effect.
Theoretically, additivity is implied if the CI is equal to one, synergy if the CI is less than one, and antagonism if the CI is greater than one. […] At best, we can construct a range that contains the likely values for the CI, given the noise in the data. In this report, these ranges are reported in parentheses next to each point estimate of the CI. […] If the range fell entirely above 1.0, we would infer antagonistic behavior. If the range were to include 1.0, we would infer additivity.
In carrying out the combination experiments below, the EC50 for Compound 1 and each comparator compound was determined during the course of each study, and used in the subsequent data analysis.

[1] = EC50 ratio 1:1 (Compound 1:comparator)
[2] = EC50 ratio 1:2.5 (Compound 1:comparator)
[3] = EC50 ratio 2.5:1 (Compound 1:comparator)

Structure (SMILES) | EC50 [nM] | Combination Indices at % HIV Inhibition (Confidence Interval) 50% [1] | Combination Indices at % HIV Inhibition (Confidence Interval) 75% [1] | Combination Indices at % HIV Inhibition (Confidence Interval) 90% [1] | Combination Indices at % HIV Inhibition (Confidence Interval) 50% [2] | Combination Indices at % HIV Inhibition (Confidence Interval) 75% [2] | Combination Indices at % HIV Inhibition (Confidence Interval) 90% [2] | Combination Indices at % HIV Inhibition (Confidence Interval) 50% [3] | Combination Indices at % HIV Inhibition (Confidence Interval) 75% [3] | Combination Indices at % HIV Inhibition (Confidence Interval) 90% [3] | Overall Result (combined anti-HIV effect)
CC(C)(C)NC(=O)[C@@H]1C[C@@H]2CCCC[C@@H]2CN1C[C@@H](O)[C@H](Cc1ccccc1)NC(=O)[C@H](CC(N)=O)NC(=O)c1ccc2ccccc2n1 [Saquinavir, saquinavir] | 5 | 0.31 (0.28, 0.33) | 0.31 (0.28, 0.35) | 0.32 (0.26, 0.38) | 0.60 (0.52, 0.67) | 0.67 (0.56, 0.79) | 0.77 (0.56, 0.97) | 0.39 (0.33, 0.45) | 0.59 (0.46, 0.72) | 0.90 (0.58, 1.22) | Synergistic
Cc1cn([C@H]2C=C[C@@H](CO)O2)c(=O)[nH]c1=O [Stavudine, stavudine] | 72 | 0.52 (0.40, 0.64) | 0.60 (0.41, 0.80) | 0.75 (0.36, 1.14) | 0.38 (0.31, 0.45) | 0.37 (0.28, 0.46) | 0.40 (0.23, 0.56) | 0.69 (0.51, 0.88) | 0.78 (0.49, 1.07) | 0.92 (0.36, 1.48) | Moderate-
Cc1cn([C@H]2C[C@H](N=[N+]=[N-])[C@@H](CO)O2)c(=O)[nH]c1=O [Zidovudine, zidovudine] | 1 | 0.25 (0.17, 0.34) | 0.53 (0.29, 0.78) | 1.13 (0.24, 2.02) | 0.46 (0.36, 0.56) | 0.52 (0.36, 0.68) | 0.59 (0.29, 0.89) | 0.37 (0.28, 0.47) | 0.49 (0.32, 0.67) | 0.66 (0.28, 1.05) | Additive-

Second part, led by results:

EC50 [nM] | Structure (SMILES) | Combination Indices at % HIV Inhibition (Confidence Interval) 50% [1] | Combination Indices at % HIV Inhibition (Confidence Interval) 75% [1] | Combination Indices at % HIV Inhibition (Confidence Interval) 90% [1] | Combination Indices at % HIV Inhibition (Confidence Interval) 50% [2] | Combination Indices at % HIV Inhibition (Confidence Interval) 75% [2] | Combination Indices at % HIV Inhibition (Confidence Interval) 90% [2] | Combination Indices at % HIV Inhibition (Confidence Interval) 50% [3] | Combination Indices at % HIV Inhibition (Confidence Interval) 75% [3] | Combination Indices at % HIV Inhibition (Confidence Interval) 90% [3] | Overall Result (combined anti-HIV effect)
7 | CC(C)c1nc(CN(C)C(=O)N[C@H](C(=O)N[C@@H](Cc2ccccc2)C[C@H](O)[C@H](Cc2ccccc2)NC(=O)OCc2cncs2)C(C)C)cs1 [Ritonavir, ritonavir] | 0.60 (0.49, 0.72) | 0.61 (0.45, 0.77) | 0.70 (0.41, 0.99) | 0.54 (0.45, 0.63) | 0.58 (0.44, 0.71) | 0.73 (0.46, 1.00) | 0.23 (0.20, 0.26) | 0.20 (0.17, 0.24) | 0.19 (0.14, 0.24) | Synergistic
34 | Nc1ccn([C@H]2CC[C@@H](CO)O2)c(=O)n1 [Zalcitabine, zalcitabine] | 0.58 (0.46, 0.69) | 0.61 (0.43, 0.78) | 0.69 (0.39, 1.00) |  | 0.56 (0.44, 0.68) | 0.65 (0.43, 0.86) | 0.24 (0.22, 0.26) | 0.18 (0.16, 0.20) | 0.14 (0.12, 0.17) | Synergistic
